# Source: patent US8003649B2 (AstraZeneca AB, priority 2007, dated 2011)
# Target: T1, Androgen Receptor (AR) (Homo sapiens, UniProt P10275, T878A)
# T1 construct: cell based immuno-fluorescence assay using the LNCaP prostate epithelial cell line; endogenous in cells; host or cells: LNCaP clone FGC (ATCC CRL-1740)
# T1 sequence (P10275 1-920 T878A): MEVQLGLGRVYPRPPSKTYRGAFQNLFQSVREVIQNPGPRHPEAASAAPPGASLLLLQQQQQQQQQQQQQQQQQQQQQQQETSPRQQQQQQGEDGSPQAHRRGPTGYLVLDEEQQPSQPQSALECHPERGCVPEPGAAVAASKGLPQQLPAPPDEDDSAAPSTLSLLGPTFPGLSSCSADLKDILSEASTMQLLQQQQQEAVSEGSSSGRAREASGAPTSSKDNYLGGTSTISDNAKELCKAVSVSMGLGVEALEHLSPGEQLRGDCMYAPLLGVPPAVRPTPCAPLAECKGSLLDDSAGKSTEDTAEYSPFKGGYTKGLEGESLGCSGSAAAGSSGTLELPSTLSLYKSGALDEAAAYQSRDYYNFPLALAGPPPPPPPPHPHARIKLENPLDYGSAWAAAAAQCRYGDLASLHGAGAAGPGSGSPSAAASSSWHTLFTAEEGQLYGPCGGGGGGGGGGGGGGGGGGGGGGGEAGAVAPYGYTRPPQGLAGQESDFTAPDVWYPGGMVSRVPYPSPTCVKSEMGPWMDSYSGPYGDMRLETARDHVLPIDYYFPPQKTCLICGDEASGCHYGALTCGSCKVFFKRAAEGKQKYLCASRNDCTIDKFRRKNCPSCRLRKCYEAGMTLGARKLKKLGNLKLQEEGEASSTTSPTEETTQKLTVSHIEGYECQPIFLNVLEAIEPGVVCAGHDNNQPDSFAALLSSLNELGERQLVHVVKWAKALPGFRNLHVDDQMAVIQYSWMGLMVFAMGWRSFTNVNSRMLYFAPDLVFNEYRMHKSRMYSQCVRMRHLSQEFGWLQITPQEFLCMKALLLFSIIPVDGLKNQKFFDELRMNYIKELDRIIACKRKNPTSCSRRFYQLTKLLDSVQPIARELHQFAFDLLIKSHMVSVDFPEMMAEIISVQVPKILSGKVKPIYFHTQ
# Assay: LNCaP Androgen Receptor Down-regulation Cell Assay (immunofluorescence end point)
# Assay type: cell-based
# Conditions: LNCaP prostate carcinoma cells, compound incubation 20-22 hours, 50% reduction of the AR signal; read-out: Androgen Receptor Down-regulation Assay (a) IC50/μM
# Protocol: The ability of compounds to reduce Androgen Receptor (AR) numbers was assessed in a cell based immuno-fluorescence assay using the LNCaP prostate epithelial cell line.
# a) LNCaP Androgen Receptor Down-regulation Cell Assay
# A 5 ml volume of Growth Medium was added to each flask (as above except that 5% (v/v) charcoal stripped FBS (HyClone Code no. SH30068.03) was included instead of 10% (v/v) FBS). Cells were syringed at least twice using a sterile 18G×1.5″ (1.2×40 mm) broad gauge needle and cell density was measured using a haemocytometer.
# Test data reported herein was generated using two different compounds preparation and dosing methods. In method (1) a 10 mM compound stock solution in 100% (v/v) DMSO was serially diluted in 4-fold steps in 100% (v/v) DMSO using a Thermo Scientific Matrix SerialMate. The diluted compounds were then further diluted 1 in 30 in assay media using a Thermo Scientific Matrix PlateMate and a 10 μl aliquot of this dilution was dosed to cells manually using a multi-channel pipette. In method (2) starting with a 10 mM compound stock solution, the Labcyte Echo 550 was used to generate a compound concentration response set diluted in 30 μl of assay media. The Echo 550 is a liquid handler that uses acoustic technology to perform direct microplate-to-microplate transfers of DMSO compound solutions. The system can be programmed to transfer volumes as low as […] in multiple increments between microplates and in so doing generates a serial dilution of compound which is then back-filled to normalise the DMSO concentration across the dilution range. A 10 μl volume of diluted compound is then dosed to cells using a Thermo Scientific Matrix PlateMate.
# Plates were incubated overnight at 37° C., 5% CO2. Wells were then dosed with compound prepared by one of the 2 methods above and further incubated for 20-22 hours at 37° C., 5% CO2. […] This fixative solution was removed and cells were washed with 250 μl of PBS/0.05% (v/v) Tween 20 (PBST) using an automated plate washer. This process was then repeated twice more.
# Immunostaining was performed at room temperature. Cells were permeabilised by the addition of 35 μl of PBS containing 0.5% Tween 20 and incubated for 1 hour at room temperature. Permeabilisation solution was removed and cells were washed with 250 μl of PBST using an automated plate washer. This process was then repeated twice more. 35 μl of Blocking Solution (PBST containing 3% (w/v) Marvel dried skimmed milk (Nestle)) was added to each well and plates were incubated at room temperature for a minimum of 1 hour. […] Then this primary antibody solution was removed from the wells followed by 3×100 μl PBST washes using a plate washer. […] Henceforth, wherever possible, plates were protected from light exposure. The plates were incubated for 1 hour and then the secondary antibody solution was removed from the wells followed by 3×100 ul PBST washes using a plate washer. Then 50 μl of PBST was added to each well and plates were covered with a black plate seal and stored at 4° C. before being read. Plates were read within six hours of completing the immunostaining.
# The Green Fluorescent AR-associated signal in each well was measured using an Acumen Explorer HTS Reader (TTP Labtech Ltd., Cambridge). […] The instrument is a laser-scanning fluorescence microplate cytometer which samples the well at regular intervals and uses threshold algorithms to identify all fluorescent intensities above the solution background without the need to generate and analyse an image. These fluorescent objects can be quantified and provide a measure of the AR levels in cells. Fluorescence dose response data obtained with each compound was exported into a suitable software package (such as Origin) to perform curve fitting analysis. Down-regulation of AR levels was expressed as an IC50 value.
row,Structure (SMILES),DC50
1,"FC(F)(F)c1cnc(N2CCCN(c3ccc4nnc(C(F)(F)F)n4n3)CC2)c(Cl)c1 [Example 30, 6-[4-[3-chloro-5-(trifluoromethyl)pyridin-2-yl]-1,4-diazepan-1-yl]-3-(trifluoromethyl)-[1,2,4]triazolo[4,3-b]pyridazine]",0.38 µM
2,"COc1nccc(-c2c(-c3ccc(F)cc3)ncn2C2CCN(c3ccc4nnc(C(F)(F)F)n4n3)CC2)n1 [Example 31, 6-[4-[4-(4-fluorophenyl)-5-(2-methoxypyrimidin-4-yl)imidazol-1-yl]piperidin-1-yl]-3-(trifluoromethyl)-[1,2,4]triazolo[4,3-b]pyridazine]",2.1 µM
3,"Cc1ccccc1N1CCN(c2ccc3nnc(C(F)(F)F)n3n2)CC1 [Example 32, 6-[4-(2-methylphenyl)piperazin-1-yl]-3-(trifluoromethyl)-[1,2,4]triazolo[4,3-b]pyridazine]",1.6 µM
4,"FC(F)(F)c1nnc2ccc(N3CCCN(Cc4ccccc4Cl)CC3)nn12 [Example 33, 6-[4-[(2-chlorophenyl)methyl]-1,4-diazepan-1-yl]-3-(trifluoromethyl)-[1,2,4]triazolo[4,3-b]pyridazine]",0.68 µM
5,"CCCC(=O)N1CC2CN(c3ccc4nnc(C(F)(F)F)n4n3)CC2C1 (centres unmarked) [Example 34, 1-[2-[3-(trifluoromethyl)-[1,2,4]triazolo[4,3-b]pyridazin-6-yl]-1,3,3a,4,6,6a-hexahydropyrrolo[3,4-c]pyrrol-5-yl]butan-1-one]",20 µM
6,"CC(C)(C)OC(=O)N1[C@@H]2CC[C@H]1CN(c1ccc3nnc(C(F)(F)F)n3n1)C2 [Example 35, tert-butyl (1S,5R)-3-[3-(trifluoromethyl)-[1,2,4]triazolo[4,3-b]pyridazin-6-yl]-3,8-diazabicyclo[3.2.1]octane-8-carboxylate]",3 µM
7,"Cc1cccc(N2CCN(c3ccc4nnc(C(F)(F)F)n4n3)CC2)c1 [Example 36, 6-[4-(3-methylphenyl)piperazin-1-yl]-3-(trifluoromethyl)-[1,2,4]triazolo[4,3-b]pyridazine]",0.99 µM
8,"FC(F)(F)c1nnc2ccc(N3CCN(c4ccccc4Cl)CC3)nn12 [Example 37, 6-[4-(2-chlorophenyl)piperazin-1-yl]-3-(trifluoromethyl)-[1,2,4]triazolo[4,3-b]pyridazine]",1.4 µM
9,"O=C1OCc2ccccc2N1C1CCN(c2ccc3nnc(C(F)(F)F)n3n2)CC1 [Example 39, 1-[1-[3-(trifluoromethyl)-[1,2,4]triazolo[4,3-b]pyridazin-6-yl]piperidin-4-yl]-4H-3,1-benzoxazin-2-one]",5 µM
10,"O=C1CCc2ccccc2N1C1CCN(c2ccc3nnc(C(F)(F)F)n3n2)CC1 [Example 40, 1-[1-[3-(trifluoromethyl)-[1,2,4]triazolo[4,3-b]pyridazin-6-yl]piperidin-4-yl]-3,4-dihydroquinolin-2-one]",3.3 µM
11,"N#Cc1cccc(CN2CCN(c3ccc4nnc(C(F)(F)F)n4n3)CC2)c1 [Example 43, 3-[[4-[3-(trifluoromethyl)-[1,2,4]triazolo[4,3-b]pyridazin-6-yl]piperazin-1-yl]methyl]benzonitrile]",1.5 µM
12,"Cc1ccc(CN2CCN(c3ccc4nnc(C(F)(F)F)n4n3)CC2)cc1 [Example 47, 6-[4-[(4-methylphenyl)methyl]piperazin-1-yl]-3-(trifluoromethyl)-[1,2,4]triazolo[4,3-b]pyridazine]",1.5 µM
13,"FC(F)(F)c1nnc2ccc(N3CCN(Cc4nc5ccccc5s4)CC3)nn12 [Example 48, 6-[4-(1,3-benzothiazol-2-ylmethyl)piperazin-1-yl]-3-(trifluoromethyl)-[1,2,4]triazolo[4,3-b]pyridazine]",1.5 µM
14,"FC(F)(F)c1nnc2ccc(N3CCN(Cc4nc5ccccc5o4)CC3)nn12 [Example 49, 6-[4-(1,3-benzoxazol-2-ylmethyl)piperazin-1-yl]-3-(trifluoromethyl)-[1,2,4]triazolo[4,3-b]pyridazine]",3.2 µM
15,"FC(F)(F)c1nnc2ccc(N3CCN(Cc4ccnc5ccccc45)CC3)nn12 [Example 50, 4-[[4-[3-(trifluoromethyl)-[1,2,4]triazolo[4,3-b]pyridazin-6-yl]piperazin-1-yl]methyl]quinoline]",1.4 µM
16,"FC(F)(F)c1nnc2ccc(N3CCN(Cc4nccs4)CC3)nn12 [Example 51, 6-[4-(1,3-thiazol-2-ylmethyl)piperazin-1-yl]-3-(trifluoromethyl)-[1,2,4]triazolo[4,3-b]pyridazine]",8.4 µM
17,"FC(F)(F)c1nnc2ccc(N3CCN(Cc4csnn4)CC3)nn12 [Example 53, 6-[4-(thiadiazol-4-ylmethyl)piperazin-1-yl]-3-(trifluoromethyl)-[1,2,4]triazolo[4,3-b]pyridazine]",7.9 µM
18,"Cn1c(CN2CCN(c3ccc4nnc(C(F)(F)F)n4n3)CC2)nc2ccccc21 [Example 54, 6-[4-[(1-methylbenzimidazol-2-yl)methyl]piperazin-1-yl]-3-(trifluoromethyl)-[1,2,4]triazolo[4,3-b]pyridazine]",6.7 µM
19,"FC(F)(F)c1nnc2ccc(N3CCN(Cc4cnccn4)CC3)nn12 [Example 55, 6-[4-(pyrazin-2-ylmethyl)piperazin-1-yl]-3-(trifluoromethyl)-[1,2,4]triazolo[4,3-b]pyridazine]",8.8 µM
20,"FC(F)(F)c1nnc2ccc(N3CCN(Cc4ccc5ccccc5n4)CC3)nn12 [Example 56, 2-[[4-[3-(trifluoromethyl)-[1,2,4]triazolo[4,3-b]pyridazin-6-yl]piperazin-1-yl]methyl]quinoline]",2.1 µM
21,"CS(=O)(=O)c1ccccc1CN1CCN(c2ccc3nnc(C(F)(F)F)n3n2)CC1 [Example 57, 6-[4-[(2-methylsulfonylphenyl)methyl]piperazin-1-yl]-3-(trifluoromethyl)-[1,2,4]triazolo[4,3-b]pyridazine]",4.3 µM
22,"N#Cc1ccccc1CN1CCN(c2ccc3nnc(C(F)(F)F)n3n2)CC1 [Example 59, 2-[[4-[3-(trifluoromethyl)-[1,2,4]triazolo[4,3-b]pyridazin-6-yl]piperazin-1-yl]methyl]benzonitrile]",2.7 µM
23,"FC(F)(F)c1nnc2ccc(N3CCN(Cc4csc5ccccc45)CC3)nn12 [Example 60, 6-[4-(1-benzothiophen-3-ylmethyl)piperazin-1-yl]-3-(trifluoromethyl)-[1,2,4]triazolo[4,3-b]pyridazine]",0.61 µM
